System: macrophage RAW264.7
Test: Evaluation of antioxidant capacity with macrophage RAW264.7 biosensor (PMA stimulation, differential pulse voltammetry)
Assay type: cell-based
Details: 0.6% solution in absolute ethanol; 100 ng/mL PMA, 10 min; 0.1 M PBS
Protocol: The electrochemical experiments in 3) can be a differential pulse voltammetry (DPV), and the DPV conditions can be as follows: scanning range: -0.2 to 0.6 V, amplitude: 0.05 V.
The relative antioxidant capacity value in 5) can be calculated by the following equation:
[formula] where RAC is the relative antioxidant capacity value, I0 is the peak current obtained in the presence of 100 ng/mL PMA, Is is the peak current in the presence of the test sample, and I is the peak current in the absence of PMA.
immersing a third biosensor in Tyrode's buffer at 37° C. for 10 min, washing the third biosensor with PBS buffer for 3 times, connecting the third biosensor to a third electrochemical workstation, and conducting an electrochemical experiment of the third biosensor in a solution containing 1.0 mM Fe(CN)6^3−, 1.0 mM Fe(CN)6^4− or 0.1 M PBS, recording the current signal, reading the peak current and marking as I.
In the following examples, the differential pulse voltammetry is selected as the electrochemical experiment method.
Positive control: a first biosensor was immersed in Tyrode's buffer at 37° C. (preparation of Tyrode's solution: 1000 mL Tyrode's solution: NaCl 8.0 g, 10% KCl 2.0 mL (0.2 g), 10% MgSO4.7H2O 2.6 mL (0.26 g), 5% NaH2PO4.2H2O 1.3 mL (0.065 g), NaHCO3 1.0 g, 1 M CaCl2 1.8 mL (0.2 g), glucose 1.0 g), and PMA was then added to a concentration of 100 ng/mL. 10 min later, the first biosensor was washed with PBS buffer for 3 times (phosphate buffered saline) at pH=7.4, and then was connected to the electrochemical workstation. The first biosensor was electrochemically detected in a solution containing 1.0 mM Fe(CN)6^3−, and the current signal was recorded and the peak current was read as I0=84.6 μA.
Blank control: a third biosensor was immersed in Tyrode's buffer at 37° C. […] The […] was electrochemically detected in a solution containing 1.0 mM Fe(CN)6^3−, and the current signal was recorded and the peak current was read as I=21.5 μA. […]
3) Electrochemical experiment: the second biosensor was used for electrochemical experiment in a PBS solution containing 1.0 mM Fe(CN)6^3−. Subsequently, the current signal and the peak current ls1 were recorded and read, respectively. […]
3) Electrochemical experiment: the biosensor IV was used for electrochemical experiment in a solution containing 1.0 mM Fe(CN)6^4−. Subsequently, the current signal was recorded and the peak current Is2 was read, where Is2=24.7 μA. […]
3) Electrochemical experiment: the biosensor was used for electrochemical experiment in a solution containing 0.1 M (mol/L) PBS. Subsequently, the current signal was recorded and the peak current Is3 was read, where Is3=26.5 μA. […]

SMILES	peak current Is4	peak current Is3	relative antioxidant value (RAC3)	relative antioxidant value (RAC4)
O=C1O[C@H]([C@@H](O)CO)C(O)=C1O [VC, Vitamin C]	25.3 μA			
Cc1c(C)c2c(c(C)c1O)CC[C@@](C)(CCC[C@H](C)CCC[C@H](C)CCCC(C)C)O2 [VE, Vitamin E]		26.5 μA	92.2%	94.2%
